Results on 16 molecules are retold here after US9918990B2, “Substituted pyrrolo[2,3-c]pyridines and pyrazolo[3,4-c]pyridines as BET protein inhibitors” (Incyte Corporation, priority 2013, dated 2018).

Structures can show the parent of a compound that is named as a salt.

The subject of experiment [1] is KMS.12.BM cells. As to the kind of experiment: KMS.12.BM cell viability assay (Cell Titer-GLO, ATP quantitation). To be noted: Homo sapiens, 72 h, 3 days, concentration required for 50% cell death, read-out: KMS cellular IC50. Format: cell-based. The gist of the method:
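Human myeloma KMS.12.BM cells, 5000 cells/well in RPMI with 10% FBS, were exposed to a compound concentration range for 3 days. Viability was read by Cell Titer-GLO ATP luminescence relative to untreated cells; IC50 is the concentration giving 50% cell death.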
(In general: Cellular ATP, detected with luciferase, serves as a proxy for viable cell number.)

Experiment [2] deals with C-myc. As to the kind of experiment: KMS.12.BM C-myc ELISA assay. Format: cell-based. To be noted: Homo sapiens; KMS.12.BM cells, 2 hours, concentration required for 50% C-myc inhibition. The gist of the method: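 Human myeloma KMS.12.BM cells in RPMI/10% FBS were exposed to a compound concentration range for 2 h, then lysed with protease inhibitors. C-myc in clarified lysates was measured by ELISA. IC50 is the concentration giving 50% C-myc inhibition relative to untreated cells.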
On the technique in general: An ELISA detects its analyte on a solid surface through an enzyme-linked reagent.

The target of experiment [3] is BRD4-BD2 (Homo sapiens (Human), UniProt O60885). As to the kind of experiment: BRD4 AlphaScreen assay, BRD4-BD2. Conditions: H4Ac4 peptide, 75 min, room temperature, read-out: BRD4 BD-2 enzyme IC50. Format: binding. The gist of the method:
(§1)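 AlphaScreen read after 75 min dark incubation at room temperature, inhibitors serially diluted in DMSO and added before other components. IC50 from fit of percent control activity versus log inhibitor concentration.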

In experiment [4] the target is BRD4-BD1 (Homo sapiens (Human), UniProt O60885). As to the kind of experiment: BRD4 AlphaScreen assay, BRD4-BD1. Format: binding. To be noted: H4Ac4 peptide, 75 min, room temperature, read-out: BRD4 BD-1 enzyme IC50. The gist of the method: as §1

For the molecule `COc1c(-c2cn(C)c(=O)c3[nH]ccc23)ccc2c1n(CCCC#N)c(=O)n2C` [Example 53, 4-[7-Methoxy-3-methyl-6-(6-methyl-7-oxo-6,7-dihydro-1H-pyrrolo[2,3-c]pyridin-4-yl)-2-oxo-2,3-dihydro-1H-benzimidazol-1-yl]butanenitrile], the IC50 in experiment [1] is no more than 1000 nM; in experiment [2], no more than 1000 nM; in experiment [3], less than 100 nM; in experiment [4], 100 to 1000 nM.

On to `COc1c(-c2cn(C)c(=O)c3[nH]ccc23)ccc2c1n(CCC#N)c(=O)n2C` [Example 54, 3-[7-Methoxy-3-methyl-6-(6-methyl-7-oxo-6,7-dihydro-1H-pyrrolo[2,3-c]pyridin-4-yl)-2-oxo-2,3-dihydro-1H-benzimidazol-1-yl]propanenitrile], for which the IC50 is no more than 1000 nM in experiment [1], no more than 1000 nM in experiment [2], less than 100 nM in experiment [3] and 100 to 1000 nM in experiment [4].

Turning to `Cn1cc(-c2ccc3ncn(CCC#N)c3c2Oc2ccccc2)c2cc[nH]c2c1=O` [Example 55, 3-[6-(6-Methyl-7-oxo-6,7-dihydro-1H-pyrrolo[2,3-c]pyridin-4-yl)-7-phenoxy-1H-benzimidazol-1-yl]propanenitrile], the IC50 is no more than 1000 nM in experiment [1], no more than 1000 nM in experiment [2], less than 100 nM in experiment [3] and less than 100 nM in experiment [4].

In the case of `Cn1cc(-c2ccc3c(ncn3C)c2Oc2ccccc2)c2cc[nH]c2c1=O` [Example 56, 6-Methyl-4-(1-methyl-4-phenoxy-1H-benzimidazol-5-yl)-1,6-dihydro-7H-pyrrolo[2,3-c]pyridin-7-one], the IC50 is no more than 1000 nM in experiment [1], no more than 1000 nM in experiment [2], less than 100 nM in experiment [3] and less than 100 nM in experiment [4].

As to `Cn1cc(-c2ccc3c(ncn3C)c2Oc2ccccc2F)c2cc[nH]c2c1=O` [Example 57, 4-[4-(2-Fluorophenoxy)-1-methyl-1H-benzimidazol-5-yl]-6-methyl-1,6-dihydro-7H-pyrrolo[2,3-c]pyridin-7-one], the IC50 is no more than 1000 nM in experiment [1], no more than 1000 nM in experiment [2], less than 100 nM in experiment [3] and less than 100 nM in experiment [4].

As to `Cn1cc(-c2ccc3c(ncn3C)c2Oc2cccc(F)c2)c2cc[nH]c2c1=O` [Example 58, 4-[4-(3-Fluorophenoxy)-1-methyl-1H-benzimidazol-5-yl]-6-methyl-1,6-dihydro-7H-pyrrolo[2,3-c]pyridin-7-one], the IC50 was no more than 1000 nM in experiment [1], no more than 1000 nM in experiment [2], less than 100 nM in experiment [3] and less than 100 nM in experiment [4].

As for `Cn1cc(-c2ccc3c(ncn3C)c2Oc2ccc(F)cc2)c2cc[nH]c2c1=O` [Example 59, 4-[4-(4-Fluorophenoxy)-1-methyl-1H-benzimidazol-5-yl]-6-methyl-1,6-dihydro-7H-pyrrolo[2,3-c]pyridin-7-one], the IC50 in experiment [1] is no more than 1000 nM; in experiment [2], no more than 1000 nM; in experiment [3], less than 100 nM; in experiment [4], less than 100 nM.

For the molecule `Cn1cc(-c2ccc3c(c2OCC2CCC2)n(CCN2CCOCC2)c(=O)n3C)c2cc[nH]c2c1=O` [Example 60, 4-(Cyclobutylmethoxy)-1-methyl-5-(6-methyl-7-oxo-6,7-dihydro-1H-pyrrolo[2,3-c]pyridin-4-yl)-3-(2-morpholin-4-ylethyl)-1,3-dihydro-2H-benzimidazol-2-one], the IC50 in experiment [1] is no more than 1000 nM; in experiment [2], no more than 1000 nM; in experiment [3] it was less than 100 nM; in experiment [4] it was less than 100 nM.

As for `Cn1cc(-c2ccc3c(c2OCC2CCC2)n(CCCC#N)c(=O)n3C)c2cc[nH]c2c1=O` [Example 61, 4-[7-(Cyclobutylmethoxy)-3-methyl-6-(6-methyl-7-oxo-6,7-dihydro-1H-pyrrolo[2,3-c]pyridin-4-yl)-2-oxo-2,3-dihydro-1H-benzimidazol-1-yl]butanenitrile], the IC50 in experiment [1] is no more than 1000 nM; in experiment [2], no more than 1000 nM; in experiment [3] it was less than 100 nM; in experiment [4], less than 100 nM.

Take `Cn1cc(-c2ccc3c(c2OCC2CCC2)n(CCC#N)c(=O)n3C)c2cc[nH]c2c1=O` [Example 62, 3-[7-(Cyclobutylmethoxy)-3-methyl-6-(6-methyl-7-oxo-6,7-dihydro-1H-pyrrolo[2,3-c]pyridin-4-yl)-2-oxo-2,3-dihydro-1H-benzimidazol-1-yl]propanenitrile]: the IC50 is no more than 1000 nM in experiment [1], no more than 1000 nM in experiment [2], less than 100 nM in experiment [3] and less than 100 nM in experiment [4].

Regarding `Cn1cc(-c2ccc3c(c2OCC2CCC2)n(Cc2ccccc2)c(=O)n3C)c2cc[nH]c2c1=O` [Example 64, 3-Benzyl-4-(cyclobutylmethoxy)-1-methyl-5-(6-methyl-7-oxo-6,7-dihydro-1H-pyrrolo[2,3-c]pyridin-4-yl)-1,3-dihydro-2H-benzimidazol-2-one], the half-inhibitory concentration (IC50) was no more than 1000 nM in experiment [1], no more than 1000 nM in experiment [2], less than 100 nM in experiment [3] and less than 100 nM in experiment [4].

As to `CC(=O)N1CCN(CCn2c(=O)n(C)c3ccc(-c4cn(C)c(=O)c5[nH]ccc45)c(OCC4CCC4)c32)CC1` [Example 66, 3-(2-(4-Acetylpiperazin-1-yl)ethyl)-4-(cyclobutylmethoxy)-1-methyl-5-(6-methyl-7-oxo-6,7-dihydro-1H-pyrrolo[2,3-c]pyridin-4-yl)-1H-benzo[d]imidazol-2(3H)-one], the IC50 was no more than 1000 nM in experiment [1], no more than 1000 nM in experiment [2], less than 100 nM in experiment [3] and less than 100 nM in experiment [4].

On to `CN1CCN(CCn2c(=O)n(C)c3ccc(-c4cn(C)c(=O)c5[nH]ccc45)c(OCC4CCC4)c32)CC1` [Example 68, 4-(Cyclobutylmethoxy)-1-methyl-5-(6-methyl-7-oxo-6,7-dihydro-1H-pyrrolo[2,3-c]pyridin-4-yl)-3-[2-(4-methylpiperazin-1-yl)ethyl]-1,3-dihydro-2H-benzimidazol-2-one], for which the IC50 was no more than 1000 nM in experiment [1], no more than 1000 nM in experiment [2], less than 100 nM in experiment [3] and less than 100 nM in experiment [4].

In the case of `Cn1cc(-c2ccc3c([nH]c(=O)n3CCN3CCOCC3)c2Oc2ccccc2)c2cc[nH]c2c1=O` [Example 69, 5-(6-Methyl-7-oxo-6,7-dihydro-1H-pyrrolo[2,3-c]pyridin-4-yl)-1-(2-morpholin-4-ylethyl)-4-phenoxy-1,3-dihydro-2H-benzimidazol-2-one trifluoroacetate], the IC50 in experiment [1] is no more than 1000 nM; in experiment [2] it was no more than 1000 nM; in experiment [3], less than 100 nM; in experiment [4] it was less than 100 nM.

With `C[C@@H]1CN(CCn2c(=O)[nH]c3c(Oc4ccccc4)c(-c4cn(C)c(=O)c5[nH]ccc45)ccc32)C[C@H](C)O1` [Example 70, 1-{2-[(2R,6S)-2,6-Dimethylmorpholin-4-yl]ethyl}-5-(6-methyl-7-oxo-6,7-dihydro-1H-pyrrolo[2,3-c]pyridin-4-yl)-4-phenoxy-1,3-dihydro-2H-benzimidazol-2-one trifluoroacetate], the IC50 is no more than 1000 nM in experiment [1], no more than 1000 nM in experiment [2], less than 100 nM in experiment [3] and less than 100 nM in experiment [4].

In the case of `Cn1cc(-c2ccc3c([nH]c(=O)n3C)c2OCC2CC2)c2cc[nH]c2c1=O` [Example 74, 4-(Cyclopropylmethoxy)-1-methyl-5-(6-methyl-7-oxo-6,7-dihydro-1H-pyrrolo[2,3-c]pyridin-4-yl)-1,3-dihydro-2H-benzimidazol-2-one], the IC50 is no more than 1000 nM in experiment [1], no more than 1000 nM in experiment [2], less than 100 nM in experiment [3] and less than 100 nM in experiment [4].

The IC50 is the midpoint of a concentration-inhibition curve.
